Key:
[1] = molecular target: PTGER2 (EP2) (Homo sapiens (Human), UniProt P43116); assay: hEP2 b-arrestin assay (PathHunter HEK 293 PTGER2 b-arrestin cells); format: cell-based; conditions: hEP2 b-arrestin assay (values without asterisk)
Outline: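 HEK293 cells expressing ProLink-tagged EP2 and EA-fused β-arrestin 2 (enzyme fragment complementation) were seeded 24 h, pre-incubated with compound 15 min at 37 °C, then stimulated with 5 μM PGE2 (final) for 120 min.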

[2] = molecular target: PTRGER4 (EP4) (Homo sapiens (Human), UniProt P35408); assay: hEP4 b-arrestin assay (PathHunter HEK 293 PTGER4 b-arrestin cells); format: cell-based; conditions: hEP4 b-arrestin assay (values without asterisk)
Chain of PTRGER4 (EP4) (P35408 whole entry, looked up, the tested form may be a part): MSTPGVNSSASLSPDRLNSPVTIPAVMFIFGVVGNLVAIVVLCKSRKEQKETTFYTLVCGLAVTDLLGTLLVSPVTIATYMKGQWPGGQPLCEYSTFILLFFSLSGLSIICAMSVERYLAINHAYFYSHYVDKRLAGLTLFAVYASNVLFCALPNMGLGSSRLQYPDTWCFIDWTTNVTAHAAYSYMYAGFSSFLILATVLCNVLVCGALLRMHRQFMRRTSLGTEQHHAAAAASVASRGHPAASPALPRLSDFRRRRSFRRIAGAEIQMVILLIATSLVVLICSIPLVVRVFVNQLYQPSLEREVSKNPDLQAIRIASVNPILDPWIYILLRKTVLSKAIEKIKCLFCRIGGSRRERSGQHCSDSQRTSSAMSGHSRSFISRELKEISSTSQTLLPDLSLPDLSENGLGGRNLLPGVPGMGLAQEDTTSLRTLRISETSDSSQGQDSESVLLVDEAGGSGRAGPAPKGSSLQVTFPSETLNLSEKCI
Outline: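 Stably transfected HEK293 cells carrying EP4–ProLink and β-arrestin 2–EA (β-gal fragment complementation), pre-incubated with compound 15 min at 37 °C, then stimulated with PGE2 (20 nM final) for 120 min at 37 °C. Chemiluminescence read after 1 h detection reagent at room temperature; activity per concentration expressed as percent of DMSO control.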

Chain of PTGER2 (EP2) (P43116 whole entry, the tested form may be a part): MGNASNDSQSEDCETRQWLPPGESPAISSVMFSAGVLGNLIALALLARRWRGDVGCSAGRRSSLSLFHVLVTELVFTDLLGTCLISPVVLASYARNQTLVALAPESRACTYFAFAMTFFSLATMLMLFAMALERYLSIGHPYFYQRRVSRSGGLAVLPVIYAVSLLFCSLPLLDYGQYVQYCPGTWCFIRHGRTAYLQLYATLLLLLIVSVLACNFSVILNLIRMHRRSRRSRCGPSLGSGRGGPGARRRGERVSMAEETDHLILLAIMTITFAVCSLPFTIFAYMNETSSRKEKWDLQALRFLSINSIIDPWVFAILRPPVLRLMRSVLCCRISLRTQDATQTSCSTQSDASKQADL

## CCOc1cc(-c2cc(NCCn3c(C)cc4c(OC)ccc(F)c43)ncn2)sc1CCC(=O)O [Example 1015, 3-(3-Ethoxy-5-{6-[2-(7-fluoro-4-methoxy-2-methyl-indol-1-yl)-ethylamino]-pyrimidin-4-yl}-thiophen-2-yl)-propionic acid]
[1]
  IC50: 15 nM
[2]
  IC50: 18 nM

## CCOc1cc(-c2cc(NCCn3c(C)cc4c(OC)ccc(F)c43)ncn2)sc1/C=C/C(=O)O [Example 1016, (E)-3-(3-Ethoxy-5-{6-[2-(7-fluoro-4-methoxy-2-methyl-indol-1-yl)-ethylamino]-pyrimidin-4-yl}-thiophen-2-yl)-acrylic acid]
[1]
  IC50: 5 nM
[2]
  IC50: 5 nM

## CNc1cc(-c2cc(NCCn3c(C)cc4c(OC)cc(F)cc43)ncn2)ccc1C(=O)O [Example 1017, 4-{6-[2-(6-Fluoro-4-methoxy-2-methyl-indol-1-yl)-ethylamino]-pyrimidin-4-yl}-2-methylamino-benzoic acid]
[1]
  IC50: 7 nM
[2]
  IC50: 31 nM

## COc1ccc(F)c2c1cc(C#N)n2CCNc1cc(-c2ccc(C(O)(O)C(F)(F)F)cc2)ncn1 [Example 1018, 7-Fluoro-4-methoxy-1-(2-{6-[4-(2,2,2-trifluoro-1,1-dihydroxy-ethyl)-phenyl]-pyrimidin-4-ylamino}-ethyl)-1H-indole-2-carbonitrile]
[1]
  IC50: 94 nM
[2]
  IC50: 69 nM

## COc1ccc(F)c2c1cc(C#N)n2CCNc1cc(-c2ccc(CCC(=O)O)cc2)ncn1 [Example 1019, 3-(4-{6-[2-(2-Cyano-7-fluoro-4-methoxy-indol-1-yl)-ethylamino]-pyrimidin-4-yl}-phenyl)-propionic acid]
[1]
  IC50: 485 nM
[2]
  IC50: 167 nM

## N#Cc1cc2c(Cl)cccc2n1CCNc1cc(-c2cc(Cl)c(C(=O)O)s2)ncn1 [Example 1020, 3-Chloro-5-{6-[2-(4-chloro-2-cyano-indol-1-yl)-ethylamino]-pyrimidin-4-yl}-thiophene-2-carboxylic acid]
[1]
  IC50: 2 nM
[2]
  IC50: 29 nM

## CCOc1cc(-c2cc(NCCn3c(C)cc4c(OC)ccc(F)c43)ncn2)sc1C(=O)NS(C)(=O)=O [Example 1022, N-(3-Ethoxy-5-{6-[2-(7-fluoro-4-methoxy-2-methyl-indol-1-yl)-ethylamino]-pyrimidin-4-yl}-thiophene-2-carbonyl)-methanesulfonamide]
[1]
  IC50: 4 nM
[2]
  IC50: 18 nM

## CCOc1cc(-c2cc(NCCn3c(C#N)cc4c(OC)ccc(F)c43)ncn2)sc1C(=O)NC [Example 1023, 5-{6-[2-(2-Cyano-7-fluoro-4-methoxy-indol-1-yl)-ethylamino]-pyrimidin-4-yl}-3-ethoxy-thiophene-2-carboxylic acid methylamide]
[1]
  IC50: 8 nM
[2]
  IC50: 1 nM

## CCNC(=O)c1sc(-c2cc(NCCn3c(C#N)cc4c(OC)ccc(F)c43)ncn2)cc1OCC [Example 1024, 5-{6-[2-(2-Cyano-7-fluoro-4-methoxy-indol-1-yl)-ethylamino]-pyrimidin-4-yl}-3-ethoxy-thiophene-2-carboxylic acid ethylamide]
[1]
  IC50: 14 nM
[2]
  IC50: 2 nM

## CCOc1cc(-c2cc(NCCn3c(C#N)cc4c(OC)ccc(F)c43)ncn2)sc1C(=O)N(C)C [Example 1025, 5-{6-[2-(2-Cyano-7-fluoro-4-methoxy-indol-1-yl)-ethylamino]-pyrimidin-4-yl}-3-ethoxy-thiophene-2-carboxylic acid dimethylamide]
[1]
  IC50: 33 nM
[2]
  IC50: 6 nM

## CCOc1cc(-c2cc(NCCn3c(C#N)cc4c(OC)ccc(F)c43)ncn2)sc1C(=O)NCCO [Example 1026, 5-{6-[2-(2-Cyano-7-fluoro-4-methoxy-indol-1-yl)-ethylamino]-pyrimidin-4-yl}-3-ethoxy-thiophene-2-carboxylic acid (2-hydroxy-ethyl)-amide]
[1]
  IC50: 21 nM
[2]
  IC50: 1 nM

## CCOc1cc(-c2cc(NCCn3c(C#N)cc4c(OC)ccc(F)c43)ncn2)sc1C(=O)NC(C)C [Example 1027, 5-{6-[2-(2-Cyano-7-fluoro-4-methoxy-indol-1-yl)-ethylamino]-pyrimidin-4-yl}-3-ethoxy-thiophene-2-carboxylic acid isopropylamide]
[1]
  IC50: 39 nM
[2]
  IC50: 3 nM

## CCOc1cc(-c2cc(NCCn3c(C#N)cc4c(OC)ccc(F)c43)ncn2)sc1C(=O)NCCOC [Example 1028, 5-{6-[2-(2-Cyano-7-fluoro-4-methoxy-indol-1-yl)-ethylamino]-pyrimidin-4-yl}-3-ethoxy-thiophene-2-carboxylic acid (2-methoxy-ethyl)-amide]
[1]
  IC50: 9 nM
[2]
  IC50: 2 nM

## CCOc1cc(-c2cc(NCCn3c(C#N)cc4c(OC)ccc(F)c43)ncn2)sc1C(=O)NS(N)(=O)=O [Example 1029, 5-(6-((2-(2-Cyano-7-fluoro-4-methoxy-1H-indol-1-yl)ethyl)amino)pyrimidin-4-yl)-3-ethoxy-N-sulfamoylthiophene-2-carboxamide]
[1]
  IC50: 4 nM
[2]
  IC50: 6 nM

## CCOc1cc(-c2cc(NCCn3c(C#N)cc4c(OC)ccc(F)c43)ncn2)sc1C(=O)NO [Example 1030, 5-{6-[2-(2-Cyano-7-fluoro-4-methoxy-indol-1-yl)-ethylamino]-pyrimidin-4-yl}-3-ethoxy-thiophene-2-carboxylic acid hydroxyamide]
[1]
  IC50: 15 nM
[2]
  IC50: 3 nM

## CCOc1cc(-c2cc(NCCn3c(C)cc4c(OC)ccc(F)c43)ncn2)sc1CO [Example 1031, (3-Ethoxy-5-{6-[2-(7-fluoro-4-methoxy-2-methyl-indol-1-yl)-ethylamino]-pyrimidin-4-yl}-thiophen-2-yl)methanol]
[1]
  IC50: 3 nM
[2]
  IC50: 19 nM

## COc1ccc(F)c2c1cc(C)n2CCNc1cc(-c2nc(OC(C)C)c(C(=O)O)s2)ncn1 [Example 1032, 2-{6-[2-(7-Fluoro-4-methoxy-2-methyl-indol-1-yl)-ethylamino]-pyrimidin-4-yl}-4-isopropoxy-thiazole-5-carboxylic acid]
[1]
  IC50: 10 nM
[2]
  IC50: 14 nM

## COc1nc(-c2cc(NCCn3c(C)cc4c(OC)ccc(F)c43)ncn2)sc1C(=O)O [Example 1033, 2-{6-[2-(7-Fluoro-4-methoxy-2-methyl-indol-1-yl)-ethylamino]-pyrimidin-4-yl}-4-methoxy-thiazole-5-carboxylic acid]
[1]
  IC50: 7 nM
[2]
  IC50: 37 nM

## CCOc1nc(-c2cc(NCCn3c(C)cc4c(OC)ccc(F)c43)ncn2)sc1C(=O)O [Example 1034, 4-Ethoxy-2-{6-[2-(7-fluoro-4-methoxy-2-methyl-indol-1-yl)-ethylamino]-pyrimidin-4-yl}-thiazole-5-carboxylic acid]
[1]
  IC50: 5 nM
[2]
  IC50: 17 nM

## CCCOc1nc(-c2cc(NCCn3c(C)cc4c(OC)ccc(F)c43)ncn2)sc1C(=O)O [Example 1035, 2-{6-[2-(7-Fluoro-4-methoxy-2-methyl-indol-1-yl)-ethylamino]-pyrimidin-4-yl}-4-propoxy-thiazole-5-carboxylic acid]
[1]
  IC50: 2 nM
[2]
  IC50: 29 nM

## COc1ccc(F)c2c1cc(C)n2CCNc1cc(-c2nc(CC(C)C)c(C(=O)O)s2)ncn1 [Example 1036, 2-{6-[2-(7-Fluoro-4-methoxy-2-methyl-indol-1-yl)-ethylamino]-pyrimidin-4-yl}-4-isobutyl-thiazole-5-carboxylic acid]
[1]
  IC50: 24 nM
[2]
  IC50: 20 nM

## CCc1nc(-c2cc(NCCn3c(C)cc4c(OC)ccc(F)c43)ncn2)sc1C(=O)O [Example 1037, 4-Ethyl-2-{6-[2-(7-fluoro-4-methoxy-2-methyl-indol-1-yl)-ethylamino]-pyrimidin-4-yl}-thiazole-5-carboxylic acid]
[1]
  IC50: 60 nM
[2]
  IC50: 100 nM

## COc1ccc(F)c2c1cc(C)n2CCNc1cc(-c2nc(C(C)(C)C)c(C(=O)O)s2)ncn1 [Example 1038, 4-tert-Butyl-2-{6-[2-(7-fluoro-4-methoxy-2-methyl-indol-1-yl)-ethylamino]-pyrimidin-4-yl}-thiazole-5-carboxylic acid]
[1]
  IC50: 64 nM
[2]
  IC50: 20 nM

## COc1ccc(F)c2c1cc(C)n2CCNc1cc(-c2ccc(C(=O)O)c(OC3CC4(COC4)C3)c2)ncn1 [Example 1039, 4-{6-[2-(7-Fluoro-4-methoxy-2-methyl-indol-1-yl)-ethylamino]-pyrimidin-4-yl}-2-(2-oxaspiro[3.3]hept-6-yloxy)-benzoic acid]
[1]
  IC50: 104 nM
[2]
  IC50: 224 nM

## CCOc1cc(-c2cc(NCCn3c(C)cc4c(OC)ccc(F)c43)ncn2)ccc1C(=O)CO [Example 1040, 1-(2-Ethoxy-4-{6-[2-(7-fluoro-4-methoxy-2-methyl-indol-1-yl)-ethylamino]-pyrimidin-4-yl}-phenyl)-2-hydroxy-ethanone]
[1]
  IC50: 91 nM
[2]
  IC50: 407 nM

## COC(=O)Nc1ccc(-c2cc(NCCn3c(C)cc4c(OC)ccc(F)c43)ncn2)cc1 [Example 1041, (4-{6-[2-(7-Fluoro-4-methoxy-2-methyl-indol-1-yl)-ethylamino]-pyrimidin-4-yl}-phenyl)-carbamic acid methyl ester]
[1]
  IC50: 26 nM
[2]
  IC50: 246 nM

## CCOc1cc(-c2cc(NCCn3c(C)cc4c(OC)ccc(F)c43)ncn2)ccc1NCC(=O)OC [Example 1042, (2-Ethoxy-4-{6-[2-(7-fluoro-4-methoxy-2-methyl-indol-1-yl)-ethylamino]-pyrimidin-4-yl}-phenylamino)-acetic acid methyl ester]
[1]
  IC50: 11 nM
[2]
  IC50: 57 nM

## CCOc1cc(-c2cc(NCCn3c(C#N)cc4c(OC)ccc(F)c43)ncn2)sc1C(=O)OCC(=O)O [Example 1043, 5-{6-[2-(2-Cyano-7-fluoro-4-methoxy-indol-1-yl)-ethylamino]-pyrimidin-4-yl}-3-ethoxy-thiophene-2-carboxylic acid carboxymethyl ester]
[1]
  IC50: 5 nM
[2]
  IC50: 1 nM

— patent US12011444B2, “N-substituted indole derivatives as PGE2 receptor modulators” (Idorsia Pharmaceuticals Ltd, priority 2015, dated 2024)
